Where two headings read alike, the source gives them in different places.
Columns and labels:
adult S. mansoni couples = assay: In vitro screening of OGHL compounds and analogues against adult S. mansoni couples (Giessen); type: cell-based, Schistosoma mansoni; details: 10 µM; for Effect on egg production: after 24 h, compared to control
Experimental: For in vitro culture in Giessen, M199 medium (Gibco) containing 10% newborn calf serum, 1% HEPES (1 M) and 1% ABAM solution (10,000 units penicillin, 10 mg streptomycin and 25 µg amphotericin B per millilitre) were used. After perfusion, the worms were transferred to petri dishes with 5 mL medium using featherweight tweezers. The worms were cultured at 37 °C and 5% CO2. After 24 h, stably paired couples were selected for inhibitor assays.
The initial screening by the Giessen team covered the 250 compounds of the OGHL, and in a subsequent, second screening approach, an additional 58 analogues of the compounds OGHL22 and OGHL121, which were tested on S. mansoni couples in vitro. For each compound, three replicates of five couples randomised from different hamsters were used. The couples were transferred to 6-well plates (or 12-well plates) containing 2 mL pre-heated medium. For each compound, the stock solution was pre-diluted in pre-heated medium, and then added to each replicate, resulting in a final volume of 2.5 mL and a final concentration of 10 µM. A negative control was included for all assays. For this, three replicates were prepared with DMSO (0.1%) as volume substitution of the stock solution. The worms were cultured at 37 °C and 5% CO2. As physiological parameters, worm motility, pairing stability, and attachment were assessed after 4 h and 24 h. After 24 h, egg production was also estimated (see below).
For the first screening approach, the Giessen team evaluated pairing stability by counting couples at the time of scoring. Attachment was determined by counting the number of worms (couples or single worms) that were attached to any surface. Motility was scored on a scale of 0–4. The average activity of the worms in the negative control was used as a reference value for normal activity: 4 indicated increased activity, 3 normal activity, 2 reduced activity, 1 little activity with occasional head and tail movements and/or gut movement, 0 no activity for at least 20 s. The number of eggs was estimated after 24 h. Compared to the control, categories for egg production were defined as fewer eggs (score 0), similar numbers of egg (score 1) and more eggs (score 2). The corresponding percentages of the scores were determined based on three replicates. Score 0 corresponded to less than 50% eggs, score 1 to 50–200%, and score 2 to over 200% of the egg count compared to the negative control. The means of the scores were later normalized to the range 0–2 (0–200%).

Schistosoma mansoni = details: cited from earlier work
[1] = system: newly transformed schistosomula (NTS); assay: In vitro screening against newly transformed schistosomula (Basel); type: cell-based, Schistosoma mansoni; details: 10 µM, 72 h incubation, Basel team
Experimental: At the Basel lab, infected B. glabrata snails were placed for 4 h under a light source to initiate the shedding of cercariae, which were collected, mechanically transformed into NTS, and kept in M199 medium supplemented with 5% fetal calf serum (FCS), 1% Mäsermix, and 1% penicillin/streptomycin (pen./strep.) 10,000 U/ml, at 37 °C and 5% CO2 [27]. To collect adult S. mansoni, mesenteric veins of infected hamsters were dissected on day 49 post-infection. The worms were placed in supplemented RPMI 1640 medium (containing 5% FCS, 1% pen., and 100 μg/ml strep.) and incubated at 37 °C with 5% CO2 until further use.
The Basel team performed the screening as follows: the stock solutions of each compound from the library (10 mM) were diluted with M199 medium (supplemented with 1% pen./strep., 1% Mäsermix, 5% FCS) and NTS solution (0.7 NTS/µL) in a transparent flat-bottom 96-well plate (Sarstedt, Switzerland), resulting in a final volume of 250 µL, 30–40 NTS, and a drug concentration of 10 µM. For adults, the drugs were diluted to 10 µM in 2 mL with RPMI 1640 medium (supplemented with 1% pen./strep. and 5% FCS) in a 24-well plate (Sarstedt, Switzerland), and three schistosome couples were added. […] For both life stages, DMSO served as a negative control (< 1% of the final volume). The plates were incubated at 37 °C and 5% CO2. […]

SMILES	Effect on egg production (adult S. mansoni couples)	further results
CC1(C)Oc2ccc(C#N)cc2[C@H](n2ccccc2=O)[C@H]1O [OGHL00027]	affected	
COC(=O)c1cc(C(=O)N=C(N)N)c(C)cc1C [OGHL00094]	affected	
CCCCCCN(Cc1ccc(C#Cc2ccc(CCCC)cc2)cc1)c1ccc(O)c(C(=O)O)c1 [OGHL00126]	affected	
COc1ccc(CNc2nc(CCCCC(=O)O)nc3sc4ccccc4c23)cc1Cl [OGHL00101]	affected	
CCCSc1cc(C)c(C(=O)N=C(N)N)cc1S(C)(=O)=O [OGHL00050]	affected	
COc1ccc(OCC(N)=O)cc1-c1cn2cc(C(=O)NCCc3c(OC)cccc3OC)sc2n1 [OGHL00241]	affected	
O=C(O)c1ccc(-c2nc(NCc3ccc4c(c3)OCO4)c3cc(Cl)sc3n2)cc1 [OGHL00093]	affected	
CCCCc1nc2ccn(Cc3ccccc3C(=O)O)c(=O)c2n1Cc1ccc(-c2ccccc2-c2nn[nH]n2)cc1 [OGHL00034]	affected	
CCc1cc(C)c(C(=O)N=C(N)N)cc1S(C)(=O)=O [OGHL00053]	affected	
O=C(C1CCCCC1)N1CC(=O)N2CCc3ccccc3C2C1 (centres unmarked) [PZQ, praziquantel]		Motility score in the initial approach (adult S. mansoni couples; within 24 h): about 0; EC50 (Schistosoma mansoni; at 4 h): 0.1 µg/mL; EC50 (Schistosoma mansoni; at 72 h, ref 32, read-out: EC50): 100 nM; EC50 (Schistosoma mansoni; at 72 h, ref 33): 0.05 µg/mL
O=C(O)c1ccc(-c2nc(NCc3ccccc3)c3c4c(sc3n2)CCCC4)cc1 [OGHL00079]	affected	
COc1nc(/C=C/c2nc3n(n2)CCCC3c2ccccc2C(F)(F)F)ccc1-n1cnc(C)c1 (centres unmarked) [OGHL00208]	affected	
COc1ccc(CNc2nc(CCCCC(=O)O)nc3sc4c(c23)CCCC4)cc1Cl [OGHL00092]	affected	
Cc1cc(C2CCC2)c(S(C)(=O)=O)cc1C(=O)N=C(N)N [OGHL00061]	affected	
COc1cc(C(=O)Nc2cn(Cc3ccc(Cl)c(Cl)c3)nn2)ccc1-n1cnc(C)c1 [OGHL00219]	affected	
COc1ccc(OCC(=O)O)cc1-c1cn2cc(C(=O)NCCc3c(OC)cc(Cl)cc3OC)sc2n1 [OGHL00248]	affected	
O=C(C1CCCCC1)N1CC(=O)N2CCc3ccccc3[C@@H]2C1 [OGHL00244, (R)-PZQ, reference compound]	drastically reduced	Attachment after 4 h (adult S. mansoni couples; adult couples, Giessen team): strong effects on attachment capacity; Pairing stability after 4 h (adult S. mansoni couples; adult couples, Giessen team): no effect on pairing stability; Pairing stability after 24 h (adult S. mansoni couples; adult couples, Giessen team): no effect on pairing stability; Activity against NTS [1]: greater than 65%
O=C(C1CCCCC1)N1CC(=O)N2CCc3ccccc3[C@H]2C1 [OGHL00245]		Couples separated after 4 h (adult S. mansoni couples): > 50%; Couples separated after 24 h (adult S. mansoni couples): separation of all couples
